The values below come from patent US11679110B2, “Methods of treating disorders using CSF1R inhibitors” (Deciphera Pharmaceuticals, LLC, priority 2018, dated 2023).

For series [1] the following is noted: dog, in vivo.
For series [2] the following is noted: human, in vivo.
Series [3] deals with CD11b+/F4/80+ intratumoral macrophages. Kind of series: Syngeneic MC38 mouse model of colorectal cancer, tumor-associated macrophages by flow cytometry, 7 days of treatment. It is filed as in vivo. Particulars: MC38 mice, seven days. On the procedure:
The protocol and procedures involving the care and use of animals in the syngeneic MC38 mouse xenograft models below were reviewed and approved by the Institutional Animal Care and Use Committee (IACUC) of CrownBio (Taicang Jiangsu Province, China) prior to conduct. During the study, the care and use of animals was conducted in accordance with the regulations of the Association for Assessment and Accreditation of Laboratory Animal Care (AAALAC). All mice had food and water ad libitum. […] In the first experiment, six- to eight-week old female C57BL/6 mice were inoculated subcutaneously in the right lower flank with one million MC38 tumor cells in Phosphate Buffered Saline. […] Tumor volume and body weight were measured thrice weekly. Tumor burden (mg) was estimated from caliper measurements by the formula: tumor burden (mg=mm^3)=(length×width^2)/2. Tumors were collected at 2 hours post the 7th dose on day 18 and freshly processed to assess infiltrating tumor-associated macrophages by flow cytometry using antibodies to CD11b+, F4/80, and CD45+. First, tumors were washed in phosphate-buffered saline and treated with collagenase and DNase. After treatment, cells were repeatedly passed through a 70 μm cell strainer. Cells were further washed, resuspended in red blood cell lysing buffer, then washed again. […]
On the technique in general: A flow cytometer gives signals particle by particle.

For series [4] the following is noted: dog, 13-week.

Take `Cc1nc(-c2cnc(NC(C)C)n(C)c2=O)ccc1Oc1ccnc(-c2cnn(C)c2)c1` [Compound 1, 2-(isopropylamino)-3-methyl-5-(6-methyl-5-((2-(1-methyl-1H-pyrazol-4-yl)pyridin-4-yl)oxy)pyridin-2-yl)pyrimidin-4(3H)-one]: in series [1] (beagle, 4 weeks), the “HNSTD (Highest Non-Serious Toxic Dose)” value is given as 7.5 mg/kg/day. Moreover, the “safety margin at NOAEL/HNSTD relative to clinical exposure (AUC)” value in series [1] is given as “about 2.1 ×”. Also, the “Grade 3/4 elevated AST/ALT events, elevated bilirubin levels or hepatic AEs” value in series [2] is listed as “did not exhibit”. The “reduction in CD11b+/F4/80+ intratumoral macrophages (as a percent of CD45+ cells in the tumor)” value in series [3] (5, 10, 15 mg/kg QD oral) is “dose-dependent reduction”. Besides, the “reduction of intratumoral macrophages (as a percent of CD45+ cells in the tumor)” value in series [3] (high dose (15 mg/kg QD oral)) was roughly 67%. Also, the microscopic liver changes result in series [4] is “without corresponding microscopic liver changes”. Further, the “increases in AST, GLDH and creatine kinase activities” value in series [4] (8 mg/kg/day) is recorded as “minimal or mild”.
